Assays:
mice [1] = experiment: Forced swim test; format: in vivo
Description: The […] was performed as previously described [Krishnan V and Nestler E J, Nature (2008) 455: 894-902]. In short, the apparatus used was a plastic bucket, 18 cm of diameter, filled with 25° C. water to a depth of 15 cm. Each mouse was placed in the center of the bucket to initiate a 6 minutes video recorded test session. The duration of time spent immobile during the 2-6 minute of testing was automatically scored using Eto Vision XT (Noldus, Wageningen, Netherlands).

mice [2] = experiment: Tail suspension test; format: in vivo
Description: The tail suspension test was performed in the TSE Tail Suspension Monitor (TSE Systems, Bad Homburg, Germany). Each mouse was taped by the tip of its tail, and suspended from the force sensor for 10 minutes. Time spent immobile and time spent struggling were calculated and recorded by the software based on pre-set thresholds.

miR-135b [3] = experiment: miR-135b levels after antidepressant treatment, real time PCR; settings: for miR-135b levels in the RN: acute or chronic administration, 20 mg/kg i.p.
miR-135a = miR-135a levels after antidepressant treatment, real time PCR; settings: for miR-135a levels in the RN: acute or chronic administration, 20 mg/kg i.p.
miR-19a = miR-19a levels in PFC after Reboxetine; format: in vivo, mice
Description: (§1) Mice received i.p. injection of tricyclic-Imipramine, or SSRI-Fluoxetine, or NRI-Reboxetine (20 mg/kg in saline) or saline.
(§2) These animals will be also tested for anxiety like behavior, locomotor activity and memory performance. Furthermore, the levels of expression of miR-19a and miR-19b are examined in different regions of interest (E.G the hippocampus, amygdala and forebrain) following an acute and chronic systemic treatment with the Noradrenaline reuptake inhibitor Reboxetine in WT mice.

miR-19b = miR-19b levels in PFC after Reboxetine; format: in vivo, mice
Description: as §1, §2

Slc6a4 3′UTR = experiment: Luciferase reporter assay, Slc6a4 3′UTR, HEK293T cells; format: cell-based, mouse; settings: for repression of Slc6a4 3′UTR luciferase reporter: miR over-expressing vector vs empty vector, HEK293T; for repression with Slc6a4 3′UTR mutated in miR-135 seed match: mutated 3′UTR lacking miR-135 seed match
Excerpt: (§3) 3′UTR sequences of Slc6a4, Htr1a, MaoA and Tph2 were PCR amplified from mouse genomic DNA, or total brain cDNA. 3′UTR PCR fragments were ligated into pGEM-T easy vector (Promega) according to the manufacturer's guidelines, and further subcloned into a single NotI site at the 3′ end of luciferase in the Psicheck2 reporter plasmid (Promega). Mutated 3′ UTR sequences, lacking miR-135 seed sequences, were synthesized with primers overhangs across the seed match sequence. Cloning orientation was verified by diagnostic cuts and by sequencing.
(§4) HEK293T cells were grown on poly-L-lysine in 48-well format to a 70-85% confluence and transfected using Polyethyleneimine with the following plasmids: 5 ng of Psicheck2-3′UTR plasmid and 215 ng of over-expressing vector for a specific miRNA, or empty-miR-vec over-expression plasmids. 24 hours following transfection cells were lysed and luciferase reporters activity were assayed as previously described [Chen A. et al. Mol Endocrinol (2005) 19: 441-58]. Renilla luciferase values were normalized to control firefly luciferase levels (transcribed from the same vector but not affected by 3′UTR tested) and averaged across six well repetitions per condition.

Htr1a 3′UTR = experiment: Luciferase reporter assay, Htr1a 3′UTR, HEK293T cells; format: cell-based, mouse; settings: for seed matches through which Htr1a 3′UTR is repressed: Htr1a miR-135 seed matches mutated individually or both; for repression of Htr1a 3′UTR luciferase reporter: miR over-expressing vector vs empty vector, HEK293T
Excerpt: as §3, §4
3′UTR sequence of Htr1a was PCR amplified from mouse genomic DNA. 3′UTR PCR fragments were ligated into pGEM-T easy vector (Promega) according to the manufacturer's guidelines, and further subcloned into a single NotI site at the 3′ end of luciferase in the Psicheck2 reporter plasmid (Promega). Cloning orientation was verified by diagnostic cuts and by sequencing.
as §4, with “plasmids:” for “plasmids: 5 ng of”, “Psicheck2-3′UTR plasmid, pre-mmu-miR-182 over-expression in pEGFP” for “Psicheck2-3′UTR”, “plasmid” for “plasmid and 215 ng of over-expressing vector for a specific miRNA,”, “pEGFP plasmid alone (clontech).” for “empty-miR-vec over-expression plasmids.”

miR-135b [4] = experiment: Lentiviral over-expression of miR-135b in RN, real time PCR; settings: lentiviruses over-expressing miR-135b injected into RN, vs control lentiviruses
mice [5] = experiment: Home cage locomotor activity; format: in vivo; settings: lentiviral miR-135b over-expression in RN
Description: To control for the possibility of behavioral effects originating from differences in ambulatory movement, locomotor activity of mice was examined over a 48 hours period, which proceeded a few days of habituation. Mice were single housed in specialized home cages and locomotion was measured using the InfraMot system (TSE Systems, Bad Hamburg, Germany).

L1cam 3′UTR = experiment: Luciferase assay, L1cam 3′UTR, N2a cells; format: cell-based
Description: (§5) Using a luciferase assay, eleven predicted target genes of miR182, chosen after extensive bioinformatics, were examined (FIG. 27A).
(§6) Similar verification for Dscam and Htr1a with mutated 3′UTR are performed.

miR-182 = miR-182 over-expression lentiviruses in N2a cell line, real time PCR; settings: N2a cells infected with over-expression lentiviruses vs control
Tsnax 3′UTR = experiment: Luciferase assay, Tsnax 3′UTR, N2a cells; format: cell-based
Description: as §5, §6

Dscam 3′UTR = experiment: Luciferase assay, Dscam 3′UTR, N2a cells; format: cell-based
Excerpt: as §5

[6] = acute and chronic administration
[7] = chronic administration (18 days)

CNCCC(Oc1ccc(C(F)(F)F)cc1)c1ccccc1 (stereo not drawn) [Fluoxetine] was tested, and the “immobility time, forced swim test” value (mice [1]; SSRI treatment, miR135KD and control KD mice) was “reduced”, the “immobility time, tail suspension test” value (mice [2]; SSRI treatment vs basal, miR135KD and control KD mice) was “decrease in immobility time” and the “miR135b levels in the AMY” value (miR-135b [3]; acute administration) was “upregulated”. For the same molecule, the “miR135b levels in the PFC” value (miR-135b [3]; acute administration) was “upregulated”, the “circulating miR-135b levels in plasma” value (miR-135b [3]; [6]) was “no effect” and the “miR-135b levels in the RN” value (miR-135b [3]) was “unaltered”. For the same molecule, the “miR135b levels in the AMY” value (miR-135b [3]; chronic administration) was “not by chronic administration”, the “miR135b levels in the PFC” value (miR-135b [3]; chronic administration) was “decreased” and the “miR135a levels in the AMY” value (miR-135a; acute administration) was “upregulated”. For the same molecule, the “miR135a levels in the PFC” value (miR-135a; acute administration) was “not significantly altered”, the “circulating miR-135a levels in plasma” value (miR-135a; [6]) was “robust decrease” and the “miR-135a levels in the RN” value (miR-135a) was “robust increase”. For the same molecule, the “miR135a levels in the AMY” value (miR-135a; chronic administration) was “not by chronic administration” and the “miR135a levels in the PFC” value (miR-135a; chronic administration) was “decreased”.

CN(C)CCCN1c2ccccc2CCc2ccccc21 [Imipramine] was tested, and the “miR-135b levels in the RN” value (miR-135b [3]) was “increased” and the “miR-135a levels in the RN” value (miR-135a) was “increased”.

CCOc1ccccc1OC(c1ccccc1)C1CNCCO1 (stereo not drawn) [Reboxetine] was tested, and the “miR135b levels in the AMY” value (miR-135b [3]; acute administration) was “upregulated”, the “miR135b levels in the PFC” value (miR-135b [3]; acute administration) was “upregulated” and the “miR-135b levels in the RN” value (miR-135b [3]) was “unaltered”. For the same molecule, the “miR135b levels in the AMY” value (miR-135b [3]; chronic administration) was “not by chronic administration”, the “miR135a levels in the AMY” value (miR-135a; acute administration) was “upregulated” and the “miR135a levels in the PFC” value (miR-135a; acute administration) was “not significantly altered”. The “miR-135a levels in the RN” value (miR-135a) was “not”, the “miR135a levels in the AMY” value (miR-135a; chronic administration) was “not by chronic administration” and the “miR-19a levels in the PFC” value (miR-19a; acute administration (once)) was “down regulated”. The “miR-19a levels in the PFC” value (miR-19a; [7]) was “upregulated”, the “miR-19b levels in the PFC” value (miR-19b; acute administration (once)) was “down regulated” and the “miR-19b levels in the PFC” value (miR-19b; [7]) was “upregulated”.

With “miR-135a: microRNA over-expressed from a vector; SEQ ID NO: 24 (AGUGUAUCCUUAUUUUUCGGUAU; listed as Mus musculus)” the “repression of Slc6a4 3′UTR luciferase reporter” value (Slc6a4 3′UTR) was “approximately 30%”, the “repression with Slc6a4 3′UTR mutated in miR-135 seed match” value (Slc6a4 3′UTR) was “fully blocked” and the “seed matches through which Htr1a 3′UTR is repressed” value (Htr1a 3′UTR) was “via the distal and not the proximal seed match”. The “repression of Htr1a 3′UTR luciferase reporter” value (Htr1a 3′UTR) was “approximately 30%”.

With “miR-135b: microRNA over-expressed from plasmid or neuron-specific lentivirus (pre-miR-135b); SEQ ID NO: 26 (AGUGUAUCCUUACUUUUCGGUAU; listed as Mus musculus)” the “repression of Slc6a4 3′UTR luciferase reporter” value (Slc6a4 3′UTR) was “approximately 50%”, the “repression with Slc6a4 3′UTR mutated in miR-135 seed match” value (Slc6a4 3′UTR) was “fully blocked” and the “seed matches through which Htr1a 3′UTR is repressed” value (Htr1a 3′UTR) was “via both predicted sites”. The “repression of Htr1a 3′UTR luciferase reporter” value (Htr1a 3′UTR) was “approximately 50%”, the “immobility time, forced swim test” value (mice [1]; lentiviral miR-135b over-expression in RN, after chronic social defeat) was “reduced immobility time” and the “induction of miR-135b levels in RN” value (miR-135b [4]) was 10 fold. For the same molecule, the “immobility time, tail suspension test” value (mice [2]; lentiviral miR-135b over-expression in RN, after chronic social defeat, last 5 min) was “reduced immobility time” and the home cage locomotion (mice [5]) was “without any observed change”.

B1: miR-182: pre-mmu-miR-182 over-expression in pEGFP plasmid or lentiviruses (nucleic acid, listed as Homo sapiens)
chain 1: GAGCUGCUUGCCUCCCCCCGUUUUUGGCAAUGGUAGAACUCACACUGGUGAGGUAACAGGAUCCGGUGGUUCUAGACUUGCCAACUAUGGGGCGAGGACUCAGCCGGCAC
chain 2: UUUGGCAAUGGUAGAACUCACACCG
With B1 the “repression of Htr1a 3′UTR luciferase reporter” value (Htr1a 3′UTR) was “strong repression”, the “effect on L1cam 3′UTR luciferase” value (L1cam 3′UTR; N2a cells) was “represoric effect” and the “effect on L1cam 3′UTR with mutated seed match” value (L1cam 3′UTR; mutated 3′UTR) was “abolished”. The “miR-182 levels in infected cells” value (miR-182) was “increased miR-182 levels”, the “effect on Tsnax 3′UTR luciferase” value (Tsnax 3′UTR; N2a cells) was “represoric effect” and the “effect on Tsnax 3′UTR with mutated seed match” value (Tsnax 3′UTR; mutated 3′UTR) was “abolished”. The “effect on Dscam 3′UTR luciferase” value (Dscam 3′UTR) was “represoric effect”.

B2: miR-335: microRNA over-expressed from a vector (nucleic acid, listed as Homo sapiens)
chain 1: UGUUUUGAGCGGGGGUCAAGAGCAAUAACGAAAAAUGUUUGUCAUAAACCGUUUUUCAUUAUUGCUCCUGACCUCCUCUCAUUUGCUAUAUUCA
chain 2: UCAAGAGCAAUAACGAAAAAUGU
In the case of B2, the “repression of Htr1a 3′UTR luciferase reporter” value (Htr1a 3′UTR) is reported as “significant repression”.
